Experiment [1] concerns the target 5-hydroxytryptamine receptor 7 (Homo sapiens, UniProt P34969). Kind of experiment: Binding affinity to 5HT7 receptor (unknown origin).
Experiment [2] addresses 5-hydroxytryptamine receptor 6 (Homo sapiens, UniProt P50406). Kind of experiment: Binding affinity to 5HT6 receptor (unknown origin).
For experiment [3], the target named is 5-hydroxytryptamine receptor 2A (Homo sapiens, UniProt P28223). In words: Binding affinity to 5HT2A receptor (unknown origin).
For a further experiment, the target named is D(2) dopamine receptor (Homo sapiens, UniProt P14416). In words: Binding affinity to D2 receptor (unknown origin).
Sequence of D(2) dopamine receptor (P14416 whole entry): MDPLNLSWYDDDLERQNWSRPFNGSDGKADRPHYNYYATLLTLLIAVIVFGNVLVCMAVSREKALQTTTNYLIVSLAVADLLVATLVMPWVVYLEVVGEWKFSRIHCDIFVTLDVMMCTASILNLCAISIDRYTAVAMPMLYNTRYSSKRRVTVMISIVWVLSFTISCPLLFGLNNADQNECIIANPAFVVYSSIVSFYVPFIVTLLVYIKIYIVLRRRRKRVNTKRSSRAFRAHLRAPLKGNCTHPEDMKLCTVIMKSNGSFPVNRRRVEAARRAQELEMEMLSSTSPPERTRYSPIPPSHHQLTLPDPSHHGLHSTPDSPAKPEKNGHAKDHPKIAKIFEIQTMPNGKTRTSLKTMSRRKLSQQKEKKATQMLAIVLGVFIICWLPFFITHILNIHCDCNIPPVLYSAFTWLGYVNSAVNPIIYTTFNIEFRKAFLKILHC
The next experiment addresses Histamine H1 receptor (Homo sapiens, UniProt P35367). Kind of experiment: Binding affinity to H1 receptor (unknown origin).
Experiment [4] concerns the target Sodium-dependent serotonin transporter (Homo sapiens, UniProt P31645). Kind of experiment: Binding affinity to SERT (unknown origin).
Experiment [5] deals with T1, 5-hydroxytryptamine receptor 1A (Homo sapiens, UniProt P08908).
T1 sequence (P08908 whole entry): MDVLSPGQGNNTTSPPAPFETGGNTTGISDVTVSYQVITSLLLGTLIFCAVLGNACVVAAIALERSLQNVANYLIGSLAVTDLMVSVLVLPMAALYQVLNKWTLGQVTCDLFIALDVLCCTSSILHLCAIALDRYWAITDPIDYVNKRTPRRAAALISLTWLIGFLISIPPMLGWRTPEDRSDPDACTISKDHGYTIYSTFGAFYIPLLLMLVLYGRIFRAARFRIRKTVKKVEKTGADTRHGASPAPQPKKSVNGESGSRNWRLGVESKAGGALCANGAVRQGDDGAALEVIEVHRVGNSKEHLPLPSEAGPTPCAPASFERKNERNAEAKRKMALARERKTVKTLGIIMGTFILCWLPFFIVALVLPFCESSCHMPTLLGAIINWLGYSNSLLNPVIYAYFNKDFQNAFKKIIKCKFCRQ
Kind of experiment: Binding affinity to 5HT1A receptor (unknown origin).

Experimental findings from ChEMBL document CHEMBL4665756, “Synthesis, crystal structure and biological activity of novel analogues of tricyclic drugs” (Bioorg Med Chem Lett, 2020) are described below.

The Ki is a dissociation constant, usually derived from enzyme kinetics or from competition with a known ligand.

Each structure is given as a SMILES string.

Sequence of 5-hydroxytryptamine receptor 6 (P50406 whole entry): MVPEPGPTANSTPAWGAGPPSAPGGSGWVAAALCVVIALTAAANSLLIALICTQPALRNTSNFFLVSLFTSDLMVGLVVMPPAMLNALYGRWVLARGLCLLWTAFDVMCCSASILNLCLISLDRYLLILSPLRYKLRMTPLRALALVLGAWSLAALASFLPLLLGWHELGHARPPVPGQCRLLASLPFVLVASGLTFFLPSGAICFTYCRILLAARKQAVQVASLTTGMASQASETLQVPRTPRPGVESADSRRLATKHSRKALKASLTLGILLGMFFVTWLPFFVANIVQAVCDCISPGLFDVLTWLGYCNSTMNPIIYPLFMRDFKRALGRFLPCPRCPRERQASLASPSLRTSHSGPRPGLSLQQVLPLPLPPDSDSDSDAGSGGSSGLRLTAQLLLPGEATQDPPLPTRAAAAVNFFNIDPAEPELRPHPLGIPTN
Sequence of Histamine H1 receptor (P35367 whole entry): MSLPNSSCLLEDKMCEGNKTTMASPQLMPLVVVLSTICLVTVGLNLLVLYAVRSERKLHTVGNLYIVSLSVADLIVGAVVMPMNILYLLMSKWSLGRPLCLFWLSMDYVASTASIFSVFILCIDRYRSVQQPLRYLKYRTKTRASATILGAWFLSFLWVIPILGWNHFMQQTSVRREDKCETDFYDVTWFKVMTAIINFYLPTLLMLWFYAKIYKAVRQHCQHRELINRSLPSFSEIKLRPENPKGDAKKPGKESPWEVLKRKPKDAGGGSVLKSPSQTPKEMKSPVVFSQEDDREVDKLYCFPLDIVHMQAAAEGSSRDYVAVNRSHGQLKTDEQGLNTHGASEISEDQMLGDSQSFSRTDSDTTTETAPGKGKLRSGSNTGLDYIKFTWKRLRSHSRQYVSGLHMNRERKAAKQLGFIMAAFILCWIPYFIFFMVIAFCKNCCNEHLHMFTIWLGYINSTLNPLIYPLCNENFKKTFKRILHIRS
Sequence of 5-hydroxytryptamine receptor 7 (P34969 whole entry): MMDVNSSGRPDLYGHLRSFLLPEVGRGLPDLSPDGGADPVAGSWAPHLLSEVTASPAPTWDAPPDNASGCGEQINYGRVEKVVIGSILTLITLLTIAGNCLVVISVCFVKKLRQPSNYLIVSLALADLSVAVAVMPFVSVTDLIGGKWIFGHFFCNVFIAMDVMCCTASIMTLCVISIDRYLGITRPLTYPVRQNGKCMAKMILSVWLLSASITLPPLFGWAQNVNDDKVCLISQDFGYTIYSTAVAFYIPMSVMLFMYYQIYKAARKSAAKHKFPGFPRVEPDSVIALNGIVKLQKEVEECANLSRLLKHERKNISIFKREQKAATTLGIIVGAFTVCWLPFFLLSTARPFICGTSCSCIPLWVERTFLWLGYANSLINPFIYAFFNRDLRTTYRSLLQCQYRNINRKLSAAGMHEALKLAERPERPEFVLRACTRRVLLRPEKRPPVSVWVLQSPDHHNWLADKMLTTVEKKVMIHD
Sequence of Sodium-dependent serotonin transporter (P31645 whole entry): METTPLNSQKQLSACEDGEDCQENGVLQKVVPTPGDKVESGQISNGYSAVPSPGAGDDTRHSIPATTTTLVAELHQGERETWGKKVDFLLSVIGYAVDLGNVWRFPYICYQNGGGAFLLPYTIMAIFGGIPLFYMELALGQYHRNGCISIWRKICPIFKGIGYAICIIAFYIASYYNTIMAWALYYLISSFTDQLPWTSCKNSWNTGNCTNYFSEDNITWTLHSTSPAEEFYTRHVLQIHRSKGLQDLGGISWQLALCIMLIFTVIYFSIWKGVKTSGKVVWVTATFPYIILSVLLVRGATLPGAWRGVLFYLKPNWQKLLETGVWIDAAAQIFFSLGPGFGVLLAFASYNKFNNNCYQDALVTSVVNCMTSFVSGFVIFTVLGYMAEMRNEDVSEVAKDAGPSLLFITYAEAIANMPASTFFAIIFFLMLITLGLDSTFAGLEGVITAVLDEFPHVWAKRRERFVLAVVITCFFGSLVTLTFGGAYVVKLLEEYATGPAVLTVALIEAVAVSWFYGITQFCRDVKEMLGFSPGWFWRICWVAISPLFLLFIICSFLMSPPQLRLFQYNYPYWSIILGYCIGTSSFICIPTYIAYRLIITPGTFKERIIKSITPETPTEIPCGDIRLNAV
Sequence of 5-hydroxytryptamine receptor 2A (P28223 whole entry): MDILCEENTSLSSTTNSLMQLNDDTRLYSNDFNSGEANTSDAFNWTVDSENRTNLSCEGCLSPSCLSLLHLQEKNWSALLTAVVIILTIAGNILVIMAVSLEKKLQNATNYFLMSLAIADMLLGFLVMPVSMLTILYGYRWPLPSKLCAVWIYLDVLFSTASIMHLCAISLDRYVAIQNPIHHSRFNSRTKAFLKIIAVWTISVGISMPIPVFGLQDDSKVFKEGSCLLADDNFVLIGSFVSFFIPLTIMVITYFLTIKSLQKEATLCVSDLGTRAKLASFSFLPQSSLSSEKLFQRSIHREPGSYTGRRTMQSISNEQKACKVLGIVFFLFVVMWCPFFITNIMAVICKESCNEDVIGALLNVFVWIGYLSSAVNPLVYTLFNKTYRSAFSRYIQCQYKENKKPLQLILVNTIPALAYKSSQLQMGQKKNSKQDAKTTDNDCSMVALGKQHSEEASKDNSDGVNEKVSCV

Turning to `CN1CCN(CCCN2C(=O)c3ccccc3/C=C\c3ccccc32)CC1`, the Ki in experiment [1] was over 100 µM; in experiment [2], 21.1 µM; in experiment [3], 48.3 µM; at D(2) dopamine receptor, 7.5 µM; at Histamine H1 receptor (read-out: Ki), over 5 µM; in experiment [4], “Not Active”. In experiment [5], this compound yielded a Ki of 87.7 µM.

Take `COc1cc2c(cc1OC)N(CCCN(C)C)C(=O)c1ccccc1N(C)C2=O`: the Ki result (at Histamine H1 receptor; in experiment [4]) was “Not Active” in each case.

Turning to `CN(C)CCN1C(=O)c2ccccc2N(C)c2ccccc21` [DIBENZEPIN], the Ki amounted to 12.3 µM in experiment [1]; 3.3 µM in experiment [2]; 7.2 µM in experiment [3]; 30.2 µM at D(2) dopamine receptor; 0.02 µM on Histamine H1 receptor (read-out: Ki); 10.9 µM in experiment [4] (read-out: Ki). In experiment [5], the Ki was 2.5 µM.

Turning to `CN(C)CCN1C(=O)c2cc(Cl)ccc2N(C)C(=O)c2cc3ccccc3cc21`, the Ki on Histamine H1 receptor (read-out: Ki) is over 5 µM; in experiment [4], “Not Active”.

`CN(C)CCCN1C(=O)c2cc(Cl)ccc2N(C)C(=O)c2cc3ccccc3cc21`: the Ki entry (on Histamine H1 receptor; in experiment [4]) was “Not Active” in each case.

Regarding `CN(C)CCCN1C(=O)c2ccccc2N(C)C(=O)c2ccccc21`, the Ki is over 10 µM on Histamine H1 receptor (read-out: Ki) and “Not Active” in experiment [4].

Regarding `COc1cc2c(cc1OC)N(CCN(C)C)C(=O)c1ccccc1N(C)C2=O`, the inhibition constant Ki at Histamine H1 receptor (read-out: Ki) is over 10 µM; in experiment [4] (read-out: Ki), over 100 µM.

Take `CN(C)CCN1C(=O)c2ccccc2N(C)C(=O)c2ccccc21`: the Ki in experiment [1] was over 100 µM; in experiment [2] it was 40.4 µM; in experiment [3], over 100 µM; at D(2) dopamine receptor it was 65.3 µM; on Histamine H1 receptor (read-out: Ki) it was over 10 µM; in experiment [4], “Not Active”. Also, in experiment [5], the Ki was over 100 µM.

In the case of `CN(C)CCN1C(=O)c2ccccc2/C=C\c2ccccc21`, the Ki was 85.2 µM in experiment [1]; 20.1 µM in experiment [2]; 74.4 µM in experiment [3]; 11.6 µM on D(2) dopamine receptor; 0.12 µM at Histamine H1 receptor (read-out: Ki); 4.6 µM in experiment [4] (read-out: Ki). This compound displayed a Ki in experiment [5] of 77.2 µM.

`CN(C)CCN1C(=O)c2ccccc2CCc2ccccc21`: the Ki on Histamine H1 receptor (read-out: Ki) was 0.29 µM; in experiment [4] (read-out: Ki), 12.4 µM.

As for `CN(C)CCCN1C(=O)c2ccccc2CCc2ccccc21`, the values for the Ki (at Histamine H1 receptor (read-out: Ki); in experiment [4] (read-out: Ki)) were 0.81 µM and over 100 µM, respectively.

Take `CN(C)CCCN1C(=O)c2ccccc2/C=C\c2ccccc21`: the Ki in experiment [1] was over 100 µM; in experiment [2], 23.4 µM; in experiment [3], 17.1 µM; at D(2) dopamine receptor it was 9 µM; at Histamine H1 receptor (read-out: Ki) it was 0.43 µM; in experiment [4] (read-out: Ki) it was 36.9 µM. In experiment [5], this compound had a Ki of 41.6 µM.

As for `CN(C)CCN1C(=O)c2ccccc2C(=O)N(Cc2ccccc2)c2ccccc21`, the Ki result (at Histamine H1 receptor; in experiment [4]) was “Not Active” throughout.

Take `CN(C)CCCN1C(=O)c2ccccc2C(=O)N(Cc2ccccc2)c2ccccc21`: the Ki entry at Histamine H1 receptor is “Not Active”; in experiment [4] (read-out: Ki), over 100 µM.

Regarding `O=C1c2ccccc2/C=C\c2ccccc2N1CCCN1CCOCC1`, the Ki is over 100 µM in experiment [1]; 75.3 µM in experiment [2]; over 100 µM in experiment [3]; 19.1 µM on D(2) dopamine receptor; “Not Active” at Histamine H1 receptor; over 100 µM in experiment [4] (read-out: Ki). The affinity in experiment [5], expressed as Ki, was 39.4 µM.
